Measured values reported in patent publication US5216159A (priority 1991, dated 1993).
Structures can show the parent of a compound that is named as a salt.

Target: GABAa receptor
Assay: GABAa receptor binding assay ([3H]-RO15-1788 [3H-Flumanzenil] displacement, rat cortical tissue)
Settings: 0.5 nM 3H-RO15-1788, rat cortical tissue, 30 min at 4° C.
Procedure: The pharmaceutical utility of compounds of this invention are indicated by the following assay for GABAa receptor activity.
Assays are carried out as described in Thomas and Tallman (J. Bio. Chem. 156: 9838-9842, J. Neurosci. 3:433-440, 1983). Rat cortical tissue is dissected and homogenized in 25 volumes (w/v) of 0.05 M Tris HCl buffer (pH 7.4 at 4° C.). The tissue homogenate is centrifuged in the cold (4°) at 20,000×g for 20'. The supernatant is decanted and the pellet is rehomogenized in the same volume of buffer and again centrifuged at 20,000×g. The supernatant is decanted and the pellet is frozen at -20° C. overnight. The pellet is then thawed and rehomogenized in 25 volume (original wt/vol) of buffer and the procedure is carried out twice. The pellet is finally resuspended in 50 volumes (w/vol of 0.05 M Tris HCl buffer (pH 7.4 at […]).
Incubations contain 100 μl of tissue homogenate, 100 μl of radioligand 0.5 nM (^3 H-RO15-1788 [^3 H-Flumanzenil] specific activity 80 Ci/mmol), drug or blocker and buffer to a total volume of 500 μl. Incubations are carried for 30 min at 4° C. then are rapidly filtered through GFB filters to separate free and bound ligand. Filters are washed twice with fresh 0.05 M tris HCl buffer (pH 7.4 at 4° C.) and counted in a liquid scintillation counter. 1.0 μM diazepam is added to some tubes to determine nonspecific binding. Data are collected in triplicate determinations, averaged and % inhibition of total specific binding is calculated. Total Specific Binding=Total-Nonspecific. In some cases, the amounts of unlabeled drugs is varied and total displacement curves of binding are carried out. Data are converted to a form for the calculation of IC50 and Hill Coefficient (nH).

Compound	IC50
c1ccc(-c2ncc3[nH]c4c(c3n2)CCCC4)cc1 [Compound 1, 2-Phenyl-6,7,8,9-tetrahydro-5H-indolo[3,2-d]-pyrimidine]	100 nM
c1ccc(-c2ncc3[nH]c4c(c3n2)CCC4)cc1 [Compound 2, 2-Phenyl-cyclopent(g)-5H-pyrrolo[3,2-d]-pyrimidine]	110 nM
c1ccc(-c2ncc3[nH]c4c(c3n2)CCCCC4)cc1 [Compound 3, 2-Phenyl-cyclohept(g)-pyrrolo[3,2-d]-5H-pyrimidine]	1000 nM
c1ccc(COC2CCc3[nH]c4cnc(-c5ccccc5)nc4c3C2)cc1 (centres unmarked) [Compound 5, 2-Phenyl-8-benzyloxy-6,7,8,9-tetrahydro-5H-indolo[3,2-d]-pyrimidine]	100 nM
COc1ccc(-c2ncc3[nH]c4c(c3n2)CCCC4)cc1 [Compound 7, 2-(4-Methoxyphenyl)-6,7,8,9-tetrahydro-5H-indolo[3,2-d]-pyrimidine]	39 nM
COc1ccc(-c2ncc3[nH]c4c(c3n2)CCC4)cc1 [Compound 9, 2-(4-Methoxyphenyl)-cyclopent(g)-5H-pyrrolo[3,2-d]-pyrimidine]	18 nM
c1csc(-c2ncc3[nH]c4c(c3n2)CCCC4)c1 [Compound 10, 2-(2-Thienyl)-6,7,8,9-tetrahydro-5H-indolo[3,2-d]-pyrimidine]	9 nM
CN1C(=O)CCC12CCc1[nH]c3cnc(-c4ccccc4)nc3c1C2 (centres unmarked) [Compound 11, 1-Methyl-2-phenyl-5,6,7,9-tetrahydro-spiro[indolo[3,2-d]-pyrimidine-2',8-pyrrolidin-5'-one]]	50 nM
c1ccc(-c2ncc3[nH]c4c(c3n2)CC2(CC4)OCCO2)cc1 [Compound 12, 2'-Phenyl-5',6',7',9'-tetrahydro-spiro[(1,3)dioxolane-2,8'-indolo[3,2-d]-pyrimidine]]	25 nM
COc1ccc(-c2ncc3[nH]c4c(c3n2)CC2(CCCO2)CC4)cc1 (centres unmarked) [Compound 15, 2-(4-Methoxyphenyl)-4,5,5',6',7',9'-hexahydro-spiro[furan-2,8'(3H)-indolo[3,2-d]-pyrimidine]]	50 nM
c1ccc(-c2ncc3[nH]c4c(c3n2)COCC4)cc1 [Compound 26, 2-Phenyl-5,6,7,9-tetrahydro-5H-pyrano[4,3-b]pyrimidino[4,5-d]-pyrrole]	400 nM
c1ccc(CN2CCc3[nH]c4cnc(-c5ccccc5)nc4c3C2)cc1 [Compound 32, 8-Benzyl-2-phenyl-5,6,7,9-tetrahydro-5H-pyrido[4,3-b]-pyrimidino[4,5-d]-pyrrole monohydrochloride]	13 nM

Test system: benzodiazepine binding site
Assay: not given
Settings: cited from earlier work

Compound	blockade of enhancement of benzodiazepine binding by GABA agonists
CN1CCc2cc3c(cc2C1C1OC(=O)c2c1ccc1c2OCO1)OCO3 (single isomer, unassigned; (+)) [(+) bicuculline]	blocked
CN1CCc2cc3c(cc2C1C1OC(=O)c2c1ccc1c2OCO1)OCO3 (single isomer, unassigned; (-)) [(-) bicuculline]	much less active
